Data reported in ChEMBL document CHEMBL5380869, “Discovery of an Oral, Beyond-Rule-of-Five Mcl-1 Protein-Protein Interaction Modulator with the Potential of Treating Hematological Malignancies” (J Med Chem, 2023).
Converted amounts (≈) assume the structure as drawn.

Assays:
[1] = Inhibition of terbium-labelled Mcl-1 (unknown origin)/Bim BH3 peptide (H3N-(C/Cy5Mal)-WIAQELRRIGDEFN-OH) (unknown origin) interaction assessed as displacement of Cy5-labeled Bim BH3 peptide by TR-HTRF assay
MOLP-8 = assay: Induction apoptosis in human MOLP8 cells assessed as cell killing measured after 2 hrs by Caspase-Glo 3/7 Assay; assay type: functional, cell-based; details: MOLP-8, 2 h
[2] = Thermodynamic (equilibrium) solubility of the compound measured after 3 days agitation in pH 2 buffer by LC-MS/MS analysis; assay type: physicochemical; details: time 3 day, read-out: Therm_solubility
[3] = Thermodynamic (equilibrium) solubility of the compound measured after 3 days agitation in pH 7 buffer by LC-MS/MS analysis; assay type: physicochemical; details: time 3 day, read-out: Therm_solubility
[4] = Lipophilicity, CHI logD of compound at pH 7.4 by UPLC-TOF analysis; assay type: physicochemical; details: buffer
[5] = Intrinsic clearance in human liver microsomes measured upto 60 mins by LC-MS/MS analysis; assay type: ADME, Microsome; details: read-out: CLH
[6] = Intrinsic clearance in mouse liver microsomes measured upto 60 mins by LC-MS/MS analysis; assay type: ADME, Microsome; details: read-out: CLH
[7] = Cardiotoxicity risk in human iPSC-CM assessed as calcium transients at 1 uM by CTCM assay; assay type: toxicity, cell-based
[8] = Cardiotoxicity risk in human iPSC-CM assessed as calcium transients at 3 uM by CTCM assay; assay type: toxicity, cell-based
[9] = Cardiotoxicity risk in human iPSC-CM assessed as calcium transients at 10 uM by CTCM assay; assay type: toxicity, cell-based
[10] = Lipophilicity, CHI logD of compound at pH 2.6 by UPLC-TOF analysis; assay type: physicochemical; details: buffer
[11] = Lipophilicity, CHI logP of compound at pH 7.4 by UPLC-TOF analysis; assay type: physicochemical; details: buffer, read-out: logP

SMILES | Ki [1] | AC50 (MOLP-8) | solubility thermodynamic at 72 h [2] | solubility thermodynamic at 72 h [3] | chromatographic logD [4] | microsomal CLint [5] | microsomal CLint [6] | Activity [7] | Activity [8] | Activity [9] | chromatographic logD [10] | chromatographic logD [11]
C[C@@H]1[C@@H](C)C/C=C/[C@H](O)[C@@H]2OCC[C@H]2CN2C[C@@]3(CCCc4cc(Cl)ccc43)COc3ccc(cc32)C(=O)NS1(=O)=O | 0.72 nM | 752 nM | < 0.1 µM | 53 µM (≈ 32.6 µg/mL) | 2.6 | 16 µL/min/mg | 28 µL/min/mg | – | – | – | – | –
COc1nn(C)cc1C(=O)N[S@@]1(=O)=NC(=O)c2ccc3c(c2)N(C[C@@H]2CCO[C@H]2[C@H](OC)/C(F)=C/C[C@H](C)C1)C[C@@]1(CCCc2cc(Cl)ccc21)CO3 | 5.1 nM | > 5000 nM | 0.2 µM (≈ 0.154 µg/mL) | 188 µM (≈ 145 µg/mL) | 2.9 | < 7.7 µL/min/mg | < 7.7 µL/min/mg | Non-Toxic | Non-Toxic | – | – | –
CO[C@@H]1/C(F)=C/C[C@H](C)[C@@H](C)S(=O)(=O)NC(=O)c2ccc3c(c2)N(C[C@@H]2CCO[C@H]21)C[C@@]1(CCCc2cc(Cl)ccc21)CO3 | 1.13 nM | 1120 nM | < 0.5 µM | 11.2 µM (≈ 7.25 µg/mL) | 3 | < 7.7 µL/min/mg | 21 µL/min/mg | – | – | – | – | –
COc1nn(C)cc1C(=O)N[S@@]1(=O)=NC(=O)c2ccc3c(c2)N(C[C@@H]2CCO[C@H]2[C@@H](OC)/C=C/C[C@H](C)C1)C[C@@]1(CCCc2cc(Cl)ccc21)CO3 | 0.023 nM | 76.1 nM | 0.27 µM (≈ 0.203 µg/mL) | 172 µM (≈ 129 µg/mL) | 2.9 | < 7.7 µL/min/mg | < 7.7 µL/min/mg | Non-Toxic | Non-Toxic | Non-Toxic | – | –
C[C@@H]1[C@@H](C)C/C=C(\F)[C@@](O)(CC#N)[C@@H]2OCC[C@H]2CN2C[C@@]3(CCCc4cc(Cl)ccc43)COc3ccc(cc32)C(=O)NS1(=O)=O | 2.36 nM | > 5000 nM | < 0.5 µM | 0.3 µM (≈ 0.202 µg/mL) | 3.1 | < 7.7 µL/min/mg | < 7.7 µL/min/mg | – | – | – | – | –
CO[C@@]1(CN2CCN3CCCC[C@@H]3C2)/C(F)=C/C[C@H](C)[C@@H](C)S(=O)(=O)NC(=O)c2ccc3c(c2)N(C[C@@H]2CCO[C@H]21)C[C@@]1(CCCc2cc(Cl)ccc21)CO3 | 0.15 nM | 1860 nM | 40 µM (≈ 32 µg/mL) | 102 µM (≈ 81.5 µg/mL) | – | < 7.7 µL/min/mg | < 7.7 µL/min/mg | – | – | – | 2.5 | 3
CO[C@]1(CN2CCN3CCOC[C@@H]3C2)/C(F)=C/C[C@H](C)[C@@H](C)S(=O)(=O)NC(=O)c2ccc3c(c2)N(C[C@@H]2CCO[C@H]21)C[C@@]1(CCCc2cc(Cl)ccc21)CO3 | 0.088 nM | 163 nM | 44 µM (≈ 35.3 µg/mL) | < 0.1 µM | – | 11 µL/min/mg | 21 µL/min/mg | Non-Toxic | Non-Toxic | Toxic | 2.8 | 3.5
CO[C@H]1/C(F)=C/C[C@H](C)[C@@H](C)S(=O)(=O)NC(=O)c2cnc3c(n2)N(C[C@@H]2CCO[C@H]21)C[C@@]1(CCCc2cc(Cl)ccc21)CO3 | 5.29 nM | 1220 nM | < 0.1 µM | 143 µM (≈ 92.8 µg/mL) | 2.8 | 98 µL/min/mg | < 7.7 µL/min/mg | – | – | – | – | –
COc1nn(C)cc1C(=O)N[S@]1(=O)=NC(=O)c2ccc3c(c2)N(C[C@@H]2CCO[C@H]2[C@@](CN2CCN4CCOC[C@@H]4C2)(OC)/C(F)=C/C[C@H](C)C1)C[C@@]1(CCCc2cc(Cl)ccc21)CO3 | 0.048 nM | 424 nM | 544 µM (≈ 503 µg/mL) | 518 µM (≈ 479 µg/mL) | 3 | < 7.7 µL/min/mg | < 7.7 µL/min/mg | Non-Toxic | Non-Toxic | – | – | –
COCCN(CCOC)C[C@]1(OC)/C(F)=C/C[C@H](C)[C@@H](C)S(=O)(=O)NC(=O)c2ccc3c(c2)N(C[C@@H]2CCO[C@H]21)C[C@@]1(CCCc2cc(Cl)ccc21)CO3 | 0.096 nM | 412 nM | 518 µM (≈ 410 µg/mL) | 1.1 µM (≈ 0.872 µg/mL) | – | < 7.7 µL/min/mg | 28 µL/min/mg | – | – | – | 3 | 3.9
